The results in this text go back to the NIST ThermoML archive (doi:10.1016/j.jct.2014.03.026).

This series in a line: Molar enthalpy of transition or fusion. The note with it: Crystal; DSC.

Numbers after ± are expanded uncertainties.

On to `O=C1/C(=C/c2ccc(Cl)cc2)CCc2ccccc21`, for which the “Molar enthalpy of transition or fusion” value was determined as 7.33 ± 0.239 kcal/mol.
